Experimental data published in PubChem BioAssay (NCI).
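Protocol summary: plate cells (96-well), add compound at 5 concentrations, incubate 48 h, interpolate endpoints linearly. Here, GI50 denotes the concentration required for 50% inhibition of growth. TGI: concentration producing complete growth inhibition.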

What was measured:
Assay in all cases: DTP human tumour cell line panel, 48 h
COLO 205 colon = test system: COLO 205 colon
RXF 393 renal = test system: RXF 393 renal
SW-620 colon = test system: SW-620 colon
NCI-H522 lung = test system: NCI-H522 lung
CAKI-1 renal = test system: CAKI-1 renal
MDA-MB-468 breast = test system: MDA-MB-468 breast
MALME-3M melanoma = test system: MALME-3M melanoma
NCI-H226 lung = test system: NCI-H226 lung
OVCAR-4 ovarian = test system: OVCAR-4 ovarian
SK-MEL-5 melanoma = test system: SK-MEL-5 melanoma
OVCAR-5 ovarian = test system: OVCAR-5 ovarian
LOX IMVI melanoma = test system: LOX IMVI melanoma
UACC-62 melanoma = test system: UACC-62 melanoma
A549 NSCLC = test system: A549 NSCLC
SN12C renal = test system: SN12C renal
A498 renal = test system: A498 renal
SK-OV-3 ovarian = test system: SK-OV-3 ovarian
HCT-15 colon = test system: HCT-15 colon
TK-10 renal = test system: TK-10 renal
MDA-MB-435 = test system: MDA-MB-435
HS 578T breast = test system: HS 578T breast
OVCAR-8 ovarian = test system: OVCAR-8 ovarian
IGROV1 ovarian = test system: IGROV1 ovarian
SF-539 CNS = test system: SF-539 CNS
HL-60(TB) leukemia = test system: HL-60(TB) leukemia
M14 melanoma = test system: M14 melanoma
UO-31 renal = test system: UO-31 renal
MOLT-4 leukemia = test system: MOLT-4 leukemia
CCRF-CEM leukemia = test system: CCRF-CEM leukemia
SF-295 CNS = test system: SF-295 CNS
KM12 colon = test system: KM12 colon
NCI/ADR-RES ovarian = test system: NCI/ADR-RES ovarian
SK-MEL-28 melanoma = test system: SK-MEL-28 melanoma
UACC-257 melanoma = test system: UACC-257 melanoma
SK-MEL-2 melanoma = test system: SK-MEL-2 melanoma
PC-3 prostate = test system: PC-3 prostate
HCC-2998 colon = test system: HCC-2998 colon
ACHN renal = test system: ACHN renal
EKVX NSCLC = test system: EKVX NSCLC
SNB-19 CNS = test system: SNB-19 CNS
NCI-H460 lung = test system: NCI-H460 lung
MDA-MB-231 breast = test system: MDA-MB-231 breast
SR leukemia = test system: SR leukemia
HT29 colon = test system: HT29 colon
T-47D breast = test system: T-47D breast
SNB-75 CNS = test system: SNB-75 CNS
HCT-116 colon = test system: HCT-116 colon
U251 CNS = test system: U251 CNS
BT-549 breast = test system: BT-549 breast
OVCAR-3 ovarian = test system: OVCAR-3 ovarian
786-0 renal = test system: 786-0 renal
NCI-H23 lung = test system: NCI-H23 lung
K-562 leukemia = test system: K-562 leukemia
RPMI-8226 leukemia = test system: RPMI-8226 leukemia
SF-268 CNS = test system: SF-268 CNS
MCF7 breast = test system: MCF7 breast
HOP-62 NSCLC = test system: HOP-62 NSCLC
DU-145 prostate = test system: DU-145 prostate
HOP-92 NSCLC = test system: HOP-92 NSCLC

For `COCOc1cc2c(=O)c(C)c(C(=O)N[C@@H](Cc3ccccc3)C(O)C(=O)NCc3ccccc3)oc2cc1OC` (stereo partly drawn), which GI50 (COLO 205 colon) is on record?
Its GI50 is over 100 µM.

What about the TGI (COLO 205 colon) of the same molecule?
The TGI was over 100 µM.

And the GI50 (RXF 393 renal)?
The GI50 was over 100 µM.

And the TGI (RXF 393 renal)?
Its TGI is over 100 µM.

What about the GI50 (SW-620 colon) of the same molecule?
The GI50 was over 100 µM.

And the TGI (SW-620 colon)?
Its TGI is over 100 µM.

And the GI50 (NCI-H522 lung)?
Its GI50 is over 100 µM.

What about the TGI (NCI-H522 lung) of the same molecule?
Its TGI is over 100 µM.

What about the GI50 (CAKI-1 renal) of the same molecule?
Its GI50 is over 100 µM.

What about the TGI (CAKI-1 renal) of the same molecule?
Its TGI is over 100 µM.

What about the GI50 (MDA-MB-468 breast) of the same molecule?
Its GI50 is over 100 µM.

And the TGI (MDA-MB-468 breast)?
Its TGI is over 100 µM.

What about the GI50 (MALME-3M melanoma) of the same molecule?
The GI50 was over 100 µM.

What about the TGI (MALME-3M melanoma) of the same molecule?
Its TGI is over 100 µM.

What about the GI50 (NCI-H226 lung) of the same molecule?
The GI50 was over 100 µM.

And the TGI (NCI-H226 lung)?
Its TGI is over 100 µM.

And the GI50 (OVCAR-4 ovarian)?
Its GI50 is over 100 µM.

And the TGI (OVCAR-4 ovarian)?
The TGI was over 100 µM.

And the GI50 (SK-MEL-5 melanoma)?
Its GI50 is over 100 µM.

And the TGI (SK-MEL-5 melanoma)?
Its TGI is over 100 µM.

And the GI50 (OVCAR-5 ovarian)?
Its GI50 is over 100 µM.

And the TGI (OVCAR-5 ovarian)?
The TGI was over 100 µM.

And the GI50 (LOX IMVI melanoma)?
The GI50 was over 100 µM.

What about the TGI (LOX IMVI melanoma) of the same molecule?
Its TGI is over 100 µM.

What about the GI50 (UACC-62 melanoma) of the same molecule?
Its GI50 is over 100 µM.

What about the TGI (UACC-62 melanoma) of the same molecule?
Its TGI is over 100 µM.

And the GI50 (A549 NSCLC)?
The GI50 was over 100 µM.

What about the TGI (A549 NSCLC) of the same molecule?
The TGI was over 100 µM.

And the GI50 (SN12C renal)?
The GI50 was over 100 µM.

And the TGI (SN12C renal)?
The TGI was over 100 µM.

What about the GI50 (A498 renal) of the same molecule?
Its GI50 is over 100 µM.

What about the TGI (A498 renal) of the same molecule?
Its TGI is over 100 µM.

And the GI50 (SK-OV-3 ovarian)?
Its GI50 is over 100 µM.

And the TGI (SK-OV-3 ovarian)?
Its TGI is over 100 µM.

And the GI50 (HCT-15 colon)?
Its GI50 is over 100 µM.

What about the TGI (HCT-15 colon) of the same molecule?
The TGI was over 100 µM.

And the GI50 (TK-10 renal)?
Its GI50 is over 100 µM.

What about the TGI (TK-10 renal) of the same molecule?
The TGI was over 100 µM.

And the GI50 (MDA-MB-435)?
Its GI50 is over 100 µM.

What about the TGI (MDA-MB-435) of the same molecule?
Its TGI is over 100 µM.

And the GI50 (HS 578T breast)?
Its GI50 is over 100 µM.

And the TGI (HS 578T breast)?
Its TGI is over 100 µM.

What about the GI50 (OVCAR-8 ovarian) of the same molecule?
The GI50 was over 100 µM.

And the TGI (OVCAR-8 ovarian)?
The TGI was over 100 µM.

And the GI50 (IGROV1 ovarian)?
The GI50 was over 100 µM.

What about the TGI (IGROV1 ovarian) of the same molecule?
The TGI was over 100 µM.

What about the GI50 (SF-539 CNS) of the same molecule?
The GI50 was 38.3 µM.

What about the TGI (SF-539 CNS) of the same molecule?
Its TGI is over 100 µM.

And the GI50 (HL-60(TB) leukemia)?
Its GI50 is over 100 µM.

And the TGI (HL-60(TB) leukemia)?
The TGI was over 100 µM.

What about the GI50 (M14 melanoma) of the same molecule?
The GI50 was 62.5 µM.

And the TGI (M14 melanoma)?
The TGI was over 100 µM.

And the GI50 (UO-31 renal)?
Its GI50 is over 100 µM.

What about the TGI (UO-31 renal) of the same molecule?
Its TGI is over 100 µM.

And the GI50 (MOLT-4 leukemia)?
Its GI50 is over 100 µM.

And the TGI (MOLT-4 leukemia)?
The TGI was over 100 µM.

What about the GI50 (CCRF-CEM leukemia) of the same molecule?
Its GI50 is over 100 µM.

What about the TGI (CCRF-CEM leukemia) of the same molecule?
The TGI was over 100 µM.

What about the GI50 (SF-295 CNS) of the same molecule?
The GI50 was over 100 µM.

What about the TGI (SF-295 CNS) of the same molecule?
Its TGI is over 100 µM.

What about the GI50 (KM12 colon) of the same molecule?
Its GI50 is over 100 µM.

And the TGI (KM12 colon)?
The TGI was over 100 µM.

What about the GI50 (NCI/ADR-RES ovarian) of the same molecule?
The GI50 was over 100 µM.

And the TGI (NCI/ADR-RES ovarian)?
The TGI was over 100 µM.

And the GI50 (SK-MEL-28 melanoma)?
Its GI50 is over 100 µM.

And the TGI (SK-MEL-28 melanoma)?
Its TGI is over 100 µM.

What about the GI50 (UACC-257 melanoma) of the same molecule?
Its GI50 is over 100 µM.

And the TGI (UACC-257 melanoma)?
Its TGI is over 100 µM.

And the GI50 (SK-MEL-2 melanoma)?
The GI50 was over 100 µM.

And the TGI (SK-MEL-2 melanoma)?
Its TGI is over 100 µM.

What about the GI50 (PC-3 prostate) of the same molecule?
The GI50 was over 100 µM.

What about the TGI (PC-3 prostate) of the same molecule?
Its TGI is over 100 µM.

And the GI50 (HCC-2998 colon)?
The GI50 was over 100 µM.

What about the TGI (HCC-2998 colon) of the same molecule?
The TGI was over 100 µM.

What about the GI50 (ACHN renal) of the same molecule?
Its GI50 is over 100 µM.

And the TGI (ACHN renal)?
The TGI was over 100 µM.

What about the GI50 (EKVX NSCLC) of the same molecule?
The GI50 was over 100 µM.

And the TGI (EKVX NSCLC)?
The TGI was over 100 µM.

And the GI50 (SNB-19 CNS)?
Its GI50 is over 100 µM.

And the TGI (SNB-19 CNS)?
The TGI was over 100 µM.

What about the GI50 (NCI-H460 lung) of the same molecule?
Its GI50 is over 100 µM.

What about the TGI (NCI-H460 lung) of the same molecule?
The TGI was over 100 µM.

And the GI50 (MDA-MB-231 breast)?
The GI50 was over 100 µM.

What about the TGI (MDA-MB-231 breast) of the same molecule?
Its TGI is over 100 µM.

What about the GI50 (SR leukemia) of the same molecule?
The GI50 was over 100 µM.

What about the TGI (SR leukemia) of the same molecule?
Its TGI is over 100 µM.

And the GI50 (HT29 colon)?
Its GI50 is over 100 µM.

What about the TGI (HT29 colon) of the same molecule?
Its TGI is over 100 µM.

And the GI50 (T-47D breast)?
Its GI50 is over 100 µM.

What about the TGI (T-47D breast) of the same molecule?
Its TGI is over 100 µM.

What about the GI50 (SNB-75 CNS) of the same molecule?
The GI50 was 96.7 µM.

And the TGI (SNB-75 CNS)?
The TGI was over 100 µM.

And the GI50 (HCT-116 colon)?
The GI50 was over 100 µM.

And the TGI (HCT-116 colon)?
The TGI was over 100 µM.

And the GI50 (U251 CNS)?
Its GI50 is over 100 µM.

What about the TGI (U251 CNS) of the same molecule?
Its TGI is over 100 µM.

What about the GI50 (BT-549 breast) of the same molecule?
Its GI50 is over 100 µM.

What about the TGI (BT-549 breast) of the same molecule?
Its TGI is over 100 µM.

What about the GI50 (OVCAR-3 ovarian) of the same molecule?
Its GI50 is over 100 µM.

What about the TGI (OVCAR-3 ovarian) of the same molecule?
Its TGI is over 100 µM.

What about the GI50 (786-0 renal) of the same molecule?
The GI50 was over 100 µM.

And the TGI (786-0 renal)?
The TGI was over 100 µM.

What about the GI50 (NCI-H23 lung) of the same molecule?
Its GI50 is over 100 µM.

What about the TGI (NCI-H23 lung) of the same molecule?
The TGI was over 100 µM.

And the GI50 (K-562 leukemia)?
Its GI50 is over 100 µM.

And the TGI (K-562 leukemia)?
The TGI was over 100 µM.

And the GI50 (RPMI-8226 leukemia)?
The GI50 was over 100 µM.

What about the TGI (RPMI-8226 leukemia) of the same molecule?
The TGI was over 100 µM.

What about the GI50 (SF-268 CNS) of the same molecule?
Its GI50 is over 100 µM.

And the TGI (SF-268 CNS)?
Its TGI is over 100 µM.

What about the GI50 (MCF7 breast) of the same molecule?
The GI50 was over 100 µM.

And the TGI (MCF7 breast)?
The TGI was over 100 µM.

And the GI50 (HOP-62 NSCLC)?
The GI50 was over 100 µM.

And the TGI (HOP-62 NSCLC)?
The TGI was over 100 µM.

And the GI50 (DU-145 prostate)?
Its GI50 is over 100 µM.

And the TGI (DU-145 prostate)?
The TGI was over 100 µM.

What about the GI50 (HOP-92 NSCLC) of the same molecule?
Its GI50 is over 100 µM.

What about the TGI (HOP-92 NSCLC) of the same molecule?
The TGI was over 100 µM.
